Values after ≈ are worked out from the molar mass of the structure shown.
Key:
Assay in all cases: ≥ marks a high value that may be exact or a test limit, other limits are often not marked, values filed in µg/mL are converted to µM
[1] = test system: Acinetobacter baumannii KCTC 2508
[2] = test system: Klebsiella pneumoniae KCTC 2208
[3] = test system: Pseudomonas aeruginosa ATCC 27853
[4] = test system: Pseudomonas aeruginosa ATCC 47085
[5] = test system: Staphylococcus aureus ATCC 25923
Candida albicans MDM8 = test system: Candida albicans MDM8
Escherichia coli SBS 363 = test system: Escherichia coli SBS 363
Micrococcus luteus A270 = test system: Micrococcus luteus A270

Row | MIC [1] [µM] | MIC [2] [µM] | MIC [3] [µM] | MIC [4] [µM] | MIC [5] [µM] | other results | Structure (SMILES)
1 | 4 (≈ 12 µg/mL) | 4 (≈ 12 µg/mL) | 8 (≈ 23.9 µg/mL) | – | – | – | CC[C@H](C)[C@H](N)C(=O)N[C@@H](C)C(=O)N[C@@H](CCCN=C(N)N)C(=O)N[C@@H](CCCN=C(N)N)C(=O)N[C@@H](C)C(=O)N[C@@H](CC(C)C)C(=O)N[C@@H](CCCCN)C(=O)N[C@@H](CCCCN)C(=O)N[C@@H](CO)C(=O)N[C@@H](CC(C)C)C(=O)N[C@@H](CCCN=C(N)N)C(=O)N[C@@H](C)C(=O)N[C@@H](CCCN=C(N)N)C(=O)N[C@@H](Cc1cnc[nH]1)C(=O)N[C@H](C(=O)N[C@H](C(=O)N1CCC[C@H]1C(=O)N[C@@H](CCC(N)=O)C(=O)N[C@@H](CS)C(=O)N[C@@H](CCCCN)C(=O)N[C@@H](CCCCN)C(=O)N[C@@H](Cc1ccccc1)C(=O)NCC(=O)N[C@@H](CCCN=C(N)N)C(=O)N[C@@H](CCCN=C(N)N)C(N)=O)[C@@H](C)CC)[C@@H](C)O [IARRALKKSLRARHTIPQCKKFGRR]
2 | 16 (≈ 47.2 µg/mL) | 8 (≈ 23.6 µg/mL) | 8 (≈ 23.6 µg/mL) | – | – | – | CC[C@H](C)[C@H](N)C(=O)N[C@@H](C)C(=O)N[C@@H](CCCN=C(N)N)C(=O)N[C@@H](CCCN=C(N)N)C(=O)N[C@@H](CC(N)=O)C(=O)N[C@@H](CC(C)C)C(=O)N[C@@H](CS)C(=O)N[C@@H](C)C(=O)N[C@@H](CO)C(=O)N[C@@H](CC(C)C)C(=O)N[C@@H](CCCN=C(N)N)C(=O)N[C@@H](C)C(=O)N[C@@H](CCCN=C(N)N)C(=O)N[C@@H](Cc1cnc[nH]1)C(=O)N[C@H](C(=O)N[C@H](C(=O)N1CCC[C@H]1C(=O)N[C@@H](CCC(N)=O)C(=O)N[C@@H](CS)C(=O)N[C@@H](CCCCN)C(=O)N[C@@H](CCCCN)C(=O)N[C@@H](Cc1ccccc1)C(=O)NCC(=O)N[C@@H](CCCN=C(N)N)C(=O)N[C@@H](CCCN=C(N)N)C(N)=O)[C@@H](C)CC)[C@@H](C)O [IARRNLCASLRARHTIPQCKKFGRR]
3 | – | – | – | ≥ 55 | 13.7 (≈ 30.5 µg/mL) | – | CC[C@H](C)[C@H](NC(=O)[C@H](CCCN=C(N)N)NC(=O)[C@H](CCC(N)=O)NC(=O)[C@@H](NC(=O)[C@@H](NC(=O)[C@@H](N)CCCN=C(N)N)[C@@H](C)CC)C(C)C)C(=O)N[C@@H](C)C(=O)N[C@@H](CCCCN)C(=O)N[C@@H](Cc1c[nH]c2ccccc12)C(=O)N[C@@H](C)C(=O)N[C@@H](CCCCN)C(=O)N[C@@H](CCCCN)C(=O)N[C@@H](Cc1c[nH]c2ccccc12)C(=O)N[C@@H](Cc1ccc(O)cc1)C(=O)N[C@@H](CCCCN)C(=O)N[C@@H](C)C(=O)NCC(=O)N[C@@H](CCCCN)C(N)=O [RIVQRIAKWAKKWYKAGK]
4 | – | – | – | 27 (≈ 63.6 µg/mL) | 13.6 (≈ 32 µg/mL) | – | CC[C@H](C)[C@H](NC(=O)[C@H](CCCN=C(N)N)NC(=O)[C@H](CCC(N)=O)NC(=O)[C@@H](NC(=O)[C@@H](NC(=O)[C@@H](N)CCCN=C(N)N)[C@@H](C)CC)C(C)C)C(=O)N[C@@H](CC(C)C)C(=O)N[C@@H](CCCCN)C(=O)N[C@@H](Cc1c[nH]c2ccccc12)C(=O)N[C@@H](CC(C)C)C(=O)N[C@@H](CCCCN)C(=O)N[C@@H](CCCCN)C(=O)N[C@@H](Cc1c[nH]c2ccccc12)C(=O)N[C@@H](Cc1ccc(O)cc1)C(=O)N[C@@H](CCCCN)C(=O)N[C@@H](CC(C)C)C(=O)NCC(=O)N[C@@H](CCCCN)C(N)=O [RIVQRILKWLKKWYKLGK]
5 | – | – | – | – | – | MIC (Candida albicans MDM8): 1.56 µM (≈ 2.01 µg/mL); MIC (Escherichia coli SBS 363): 12.5 µM (≈ 16.1 µg/mL); MIC (Micrococcus luteus A270): 1.56 µM (≈ 2.01 µg/mL) | CC[C@H](C)[C@H](NC(=O)[C@H](CC(C)C)NC(=O)[C@H](CCCCN)NC(=O)[C@H](CCCN=C(N)N)NC(=O)[C@H](Cc1ccccc1)NC(=O)[C@H](CC(C)C)NC(=O)[C@H](CO)NC(=O)[C@H](CC(C)C)NC(=O)[C@H](CC(C)C)NC(=O)[C@@H](N)CO)C(=O)N[C@H](C(N)=O)[C@@H](C)O [SLLSLFRKLIT]
